Our source for the zone of inhibition, MIC and ED50 values is ChEMBL document CHEMBL4393657, “Tetrazole hybrids and their antifungal activities” (2019).

Converted amounts (≈) assume the structure as drawn.

What all share (type): functional
The subject of test [1] is Candida albicans. Kind of test: Antifungal activity against Candida albicans NCCS 3471 assessed as inhibition zone at 500 ug/ml by disk diffusion method. The note with it: read-out: IZ.
The test system of test [2] is Aspergillus niger. Kind of test: Antifungal activity against Aspergillus niger NCCS 1196 assessed as inhibition zone at 500 ug/ml by disk diffusion method. The note with it: read-out: IZ.
Test [3] deals with Aspergillus flavus. Kind of test: Antifungal activity against Aspergillus flavus.
For test [4], the system named is Candida albicans. Kind of test: Antifungal activity against Candida albicans.
In test [5] the test system is Aspergillus niger. Kind of test: Antifungal activity against Aspergillus niger.
In a further test the test system is Mucor indicus. Briefly: Antifungal activity against Mucor indicus.
The test system of the next test is Rhizopus arrhizus. Briefly: Antifungal activity against Rhizopus arrhizus.
The test system of test [6] is Candida albicans. Briefly: Antifungal activity against Candida albicans TA.
The subject of test [7] is Candida albicans. Kind of test: In vivo antifungal activity against Candida albicans TA infected in CDF-1 mouse dosed orally assessed as survival of mouse. The note with it: po.
The test system of test [8] is Candida albicans. Briefly: Antifungal activity against Candida albicans assessed as reduction in fungal cell growth incubated for 48 hrs by broth microdilution susceptibility method.
For test [9], the system named is Aspergillus niger. Kind of test: Antifungal activity against Aspergillus niger assessed as reduction in fungal cell growth incubated for 48 hrs by broth microdilution susceptibility method.
Test [10] relates to Aspergillus flavus. Briefly: Antifungal activity against Aspergillus flavus assessed as inhibition zone at 25 ug/ml by disk diffusion method. The note with it: read-out: IZ.
For a further test, the system named is Aspergillus fumigatus. Kind of test: Antifungal activity against Aspergillus fumigatus assessed as inhibition zone at 25 ug/ml by disk diffusion method. As to conditions: read-out: IZ.
Test [11] deals with Aspergillus niger. Briefly: Antifungal activity against Aspergillus niger assessed as inhibition zone at 25 ug/ml by disk diffusion method. The note with it: read-out: IZ.
In test [12] the test system is Candida albicans. Kind of test: Antifungal activity against Candida albicans assessed as inhibition zone at 25 ug/ml by disk diffusion method. The note with it: read-out: IZ.
The test system of test [13] is Candida albicans. Kind of test: Antifungal activity against Candida albicans assessed as reduction in fungal cell growth incubated for 24 hrs by broth microdilution method.
The test system of test [14] is Candida albicans. Briefly: Antifungal activity against Candida albicans assessed as inhibition zone at 125 ug/ml by disk diffusion method. As to conditions: read-out: IZ.
Test [15] concerns Candida albicans. Briefly: Antifungal activity against Candida albicans ATCC 885653 assessed as inhibition zone at 100 ug/ml incubated for 48 to 72 hrs by agar-diffusion method. The note with it: read-out: IZ.

As for `CC(=O)N1N=C(Cn2cc(-c3nn(-c4ccncc4)cc3-c3nnnn3-c3ccc(C(F)(F)F)cc3)c3cc(Cl)ccc32)OC1(C)c1ccccc1` (configuration not stated), the zone of inhibition at 500 µg/mL with Candida albicans [1] and with Aspergillus niger [2] was 11 to 20 mm throughout.
On to `O=C(O)c1cn(C2CC2)c2nc(N3CCN(CC(=O)c4nnnn4-c4ccc(Cl)cc4)CC3)c(F)cc2c1=O`, for which the MIC in the test with Aspergillus flavus [3], in the test with Candida albicans [4], against Aspergillus niger [5], with Mucor indicus and with Rhizopus arrhizus was 6.25 to 100 µg/mL (≈ 11.3 to 181 µM) each time.
`CC(=O)N1N=C(Cn2cc(-c3nn(-c4ccncc4)cc3-c3nnnn3-c3ccc(C(F)(F)F)cc3)c3cc(Cl)ccc32)OC1(C)c1ccc(C(F)(F)F)cc1` (configuration not stated): the zone of inhibition at 500 µg/mL in the test on Candida albicans [1] and in the test with Aspergillus niger [2] was 11 to 20 mm in each case.
As for `C[C@@H](n1cnnn1)[C@](O)(Cn1cncn1)c1ccc(F)cc1`, in the test with Candida albicans [6], the MIC lay within 12.5 to 100 µg/mL (≈ 41.2 to 330 µM). In the test with Candida albicans [7], the ED50 lay in the range of 0.18 to 1.54 mg/kg.
For `COc1ccc(-c2nn[se]c2-n2nnc(-c3ccccc3)n2)cc1`, the MIC with Candida albicans [8] and in the test on Aspergillus niger [9] was 100 to 400 µg/mL (≈ 261 to 1040 µM) throughout.
For `O=C(O)c1cn(C2CC2)c2nc(N3CCN(CC(=O)c4nnnn4-c4ccc([N+](=O)[O-])cc4)CC3)c(F)cc2c1=O`, the MIC was 6.25 to 100 µg/mL (≈ 11.1 to 177 µM) with Aspergillus flavus [3]; 6.25 to 100 µg/mL (≈ 11.1 to 177 µM) against Candida albicans [4]; 6.25 µg/mL (≈ 11.1 µM) against Aspergillus niger [5]; 6.25 to 100 µg/mL (≈ 11.1 to 177 µM) in the test on Mucor indicus; 6.25 to 100 µg/mL (≈ 11.1 to 177 µM) in the test on Rhizopus arrhizus.
`c1ccc(OCc2cn(Cc3ccc(-c4ccccc4-c4nnn[nH]4)cc3)nn2)cc1`: the zone of inhibition at 25 µg/mL with Aspergillus flavus [10], in the test on Aspergillus fumigatus, in the test with Aspergillus niger [11] and with Candida albicans [12] was 11 to 18 mm throughout.
`Cc1ccc(-c2nnn(-c3[se]nnc3-c3ccc(Cl)cc3)n2)cc1`: the MIC in the test on Candida albicans [8] and with Aspergillus niger [9] was 100 to 400 µg/mL (≈ 249 to 996 µM) each time.
In the test with Candida albicans [6], `C[C@@H](n1cnnn1)[C@](O)(Cn1cncn1)c1ccc(Cl)cc1` displayed an MIC of 12.5 to 100 µg/mL (≈ 39.1 to 313 µM). Besides, the ED50 with Candida albicans [7] was in the range of 0.18 to 1.54 mg/kg.
Consider `C[C@@H]1[C@H](O)[C@@H](C)/C=C/C=C/C=C/C=C/C=C/C=C/C=C/[C@H](O[C@@H]2O[C@H](C)[C@@H](O)[C@H](N)[C@@H]2O)C[C@@H]2O[C@](O)(C[C@@H](O)C[C@@H](O)[C@H](O)CC[C@@H](O)C[C@@H](O)CC(=O)O[C@H]1C)C[C@H](O)[C@H]2C(=O)O` [AMPHOTERICIN B], for which the MIC in the test with Candida albicans [13] was < 0.48 µg/mL.
In the case of `Clc1ccc(/N=C/c2cc3cc(-c4nc5ccccc5[nH]4)ccc3n3nnnc23)cc1`, the zone of inhibition at 125 µg/mL with Candida albicans [14] was in the range of 7 to 12 mm.
Still for that read-out and setting: for `C(=N\c1ccccc1)/c1cc2cc(-c3nc4ccccc4[nH]3)ccc2n2nnnc12` the value was 7 to 12 mm.
For `CC(=O)N1N=C(Cn2cc(-c3nn(-c4ccncc4)cc3-c3nnnn3-c3ccc(C(F)(F)F)cc3)c3cc(Cl)ccc32)OC1(C)c1ccc([N+](=O)[O-])cc1` (configuration not stated), the zone of inhibition at 500 µg/mL with Candida albicans [1] and with Aspergillus niger [2] was 11 to 20 mm in each case.
`O=C(O)c1ccc(/N=C/c2cc3cc(-c4nc5ccccc5[nH]4)ccc3n3nnnc23)cc1`: in the test with Candida albicans [14], the zone of inhibition at 125 µg/mL lay within 7 to 12 mm.
Same read-out and setting: to `O=C(O)c1cccc(/N=C/c2cc3cc(-c4nc5ccccc5[nH]4)ccc3n3nnnc23)c1` belongs 7 to 12 mm.
As for `COc1ccc(-c2nn[se]c2-n2nnc(-c3ccc(C)cc3)n2)cc1`, the MIC in the test on Candida albicans [8] and in the test on Aspergillus niger [9] was 100 to 400 µg/mL (≈ 252 to 1010 µM) each time.
For `CC(=O)N1N=C(Cn2cc(-c3nn(-c4ccncc4)cc3-c3nnnn3-c3ccc(C(F)(F)F)cc3)c3cc(Cl)ccc32)OC1(C)c1ccc(Br)cc1` (configuration not stated), the zone of inhibition at 500 µg/mL in the test on Candida albicans [1] and in the test on Aspergillus niger [2] was 11 to 20 mm each time.
As for `COc1ccc(/N=C/c2cc3cc(-c4nc5ccccc5[nH]4)ccc3n3nnnc23)cc1`, in the test on Candida albicans [14], the zone of inhibition at 125 µg/mL was in the range of 7 to 12 mm.
`NCCSc1nc2ccccc2c2nnnn12`: the zone of inhibition at 100 µg/mL in the test with Candida albicans [15] is 6 to 22 mm.
On the same count and under the same terms, to `COc1ccc(C(=O)CSc2nc3ccccc3c3nnnn23)cc1` belongs 6 to 22 mm.
Same read-out and setting: to `COc1ccc(OC)c(C(=O)CSc2nc3ccccc3c3nnnn23)c1` belongs 22 mm.
Regarding `CC(=O)N1N=C(Cn2cc(-c3nn(-c4ccncc4)cc3-c3nnnn3-c3ccc(C(F)(F)F)cc3)c3cc(Cl)ccc32)OC1(C)c1ccc(Cl)cc1` (configuration not stated), the zone of inhibition at 500 µg/mL with Candida albicans [1] and in the test with Aspergillus niger [2] was 11 to 20 mm throughout.
With `Clc1ccc(-c2nnn(-c3[se]nnc3-c3ccc(Cl)cc3)n2)cc1`, the MIC in the test with Candida albicans [8] and in the test with Aspergillus niger [9] was 6.25 µg/mL (≈ 14.8 µM) throughout.
In turn, `C[C@@H](n1ncnn1)[C@](O)(Cn1cncn1)c1ccc(Cl)cc1` came in with an MIC against Candida albicans [6] of 100 µg/mL (≈ 313 µM).
For `CNCCSc1nc2ccccc2c2nnnn12`, the zone of inhibition at 100 µg/mL in the test on Candida albicans [15] was 6 to 22 mm.
